In ChEMBL document CHEMBL1153957, “Novel small molecule activators of beta-catenin-mediated signaling pathway: structure-activity relationships of indirubins” (Bioorg Med Chem Lett, 2009):
The source made the active and inactive calls. The rule behind the calls is not given here.

Experiments:
Format in all cases: cell-based
Details in all cases: Homo sapiens
[1] = Activation of Wnt signaling pathway in HEK293 cells assessed as increase in beta-catenin-mediated Tcf/Lef transcriptional activity after 24 hrs by dual luciferase reporter gene
[2] = Activation of Wnt signaling pathway in HEK293 cells assessed as increase in beta-catenin-mediated Tcf/Lef transcriptional activity at 250 nM after 24 hrs by dual luciferase reporter gene assay relative to control
[3] = Activation of Wnt signaling pathway in HEK293 cells assessed as decrease in phosphorylation at […]/37/Thr41 of […] at 250 nM after 24 hrs by Western blot analysis
[4] = Activation of Wnt signaling pathway in HEK293 cells assessed as increase in phosphorylation at Ser9 of GSK3-beta at 250 nM after 24 hrs by Western blot analysis
[5] = Activation of Wnt signaling pathway in HEK293 cells assessed as decrease in phosphorylation at Tyr216 of GSK3-beta at 250 nM after 24 hrs by Western blot analysis

In the case of `O=C1Nc2cc(Br)ccc2/C1=C1/Nc2ccccc2/C1=N\O`, the Activity [1] was “Dose-dependent effect” and the fold change (FC) [2] was 2.7.
`O=C1Nc2ccc([N+](=O)[O-])cc2/C1=C1/Nc2ccc(Br)cc2/C1=N/O` gave a fold change (FC) [2] of 1.66.
With `CC(=O)Nc1ccc2c(c1)/C(=C1/Nc3ccccc3/C1=N\O)C(=O)N2` the fold change (FC) [2] was 1.89.
For `O=Nc1c(-c2c(O)[nH]c3ccc([N+](=O)[O-])cc23)[nH]c2ccccc12`, the Activity [3] was “Active”, the Activity [4] was “Active” and the fold change (FC) [2] was 4.2. The Activity [5] was “Active”.
Work on `O=C1Nc2ccc(Cl)cc2/C1=C1/Nc2ccccc2/C1=N\O` yielded a fold change (FC) [2] of 3.46.
`CC(C)(C)C(=O)Nc1ccc2c(c1)/C(=C1/Nc3ccccc3/C1=N\O)C(=O)N2` gave a fold change (FC) [2] of 1.51.
`O=C1Nc2ccccc2/C1=C1/Nc2ccccc2C1=O` showed a fold change (FC) [2] of 2.04.
